The values that follow come from patent publication US20240253033A1, “MICROFLUIDIC DETECTION SYSTEM WITH ADJUSTABLE FLOW CONTROL” (priority 2022, published 2024).

Series [1] relates to PA. The experiment in a line: QolorAST minimum inhibitory concentration (MIC) test. In kind it is cell-based, Pseudomonas aeruginosa. How it is done: (§1) Ampicillin-resistant E. coli strain mm294 was cultured overnight at 37° C. in Luria broth (LB) media supplemented with 100 μg/mL Ampicillin. […] Next, the bacterial concentration was determined by optical density technique using a Spectronic 21D spectrophotometer. Subsequently, aliquots of different concentrations were prepared for the antibiotic susceptibility testing experiments in LB media. Biotyper spectra (MALDI Bruker).
(§2) 5×10^5 CFU ml^−1 Oxacillin-resistant S. aureus aliquots were prepared using resazurin/oxacillin solution using different concentrations of oxacillin antibiotic (16 μg/mL, 32 μg/mL, and 64 μg/mL). 5×10^5 CFU ml^−1 Cipro.
(§3) A minimum inhibitory concentration (MIC) was performed to study the QolorAST broad applicability in detecting bacterial resistance profiles and ensuring timely and efficient antimicrobial theraby. […] The antibiotics cover major bacterial inhibition mechanisms as inhibition of protein synthesis, cell wall synthesis, and/or DNA synthesis.
(§4) QolorAST exploited two methodologies: Manual MIC (MA-MIC) and support vector machine MIC (SVM-MIC). […] The SVM-MIC was carried out with a rbf kernel that was optimized and trained to predict the color change of the preclinical images using our library of bacteria images collected under different conditions including images where color is changed, color transitioning, and no color change. The SVM successfully classified the condition's bacteria-antibiotic in the concentration range studied.

Series [2] has as its system Pseudomonas aeruginosa. The experiment in a line: Phenotypic QolorAST rapid AST (resazurin reduction). In kind it is cell-based. The note with it: 10^5 cfu/mL PA, antibiotic concentrations, 0-60 min. How it is done: (§5) Resistant E. coli, Oxacillin-resistant S. aureus, and Cipro. Resistant PA respectively was used. The aliquots were incubated at 37° C. different periods starting from 0 minutes incubation till 60 minutes with a time step of 5 minutes.
(§6) Resistant PA respectively was used. The aliquots were incubated at 37° C. different periods starting from 0 minutes incubation until 60 minutes with a time step of 5 minutes.
(§7) MRSA and PA respectively.

For series [3], the system named is PA. Description: Conventional broth microdilution (BMD) MIC. In kind it is cell-based, Pseudomonas aeruginosa. How it is done:
(§8) For clinical MIC, bacteria were streaked on LB agar overnight and resuspended in a water aliquot. The aliquot was measured, and the bacteria concentration was adjusted to of 10^6 CFU ml^−1 in LB media. A 96 well plate with an antibiotic gradient from 128 μg/ml to 0.125 μg/ml in a 2-fold concentration dilution step was prepared with a positive control with no antibiotics. Next, the bacteria were introduced to each well of the 96 well plate for a final bacteria concentration of 5×10^5 CFU ml^−1. The well plates were cultured overnight the minimum inhibitory concentration was determined as the antibiotic concentration that didn't show any signs of bacterial growth.

For series [4], the system named is E. cloacae. The experiment in a line: QolorAST minimum inhibitory concentration (MIC) test. Format: cell-based, Enterobacter cloacae. How it is done:
(§9) Acinetobacter baumannii, Enterococcus faecalis, Enterococcus faecium, Streptococcus agalactiae, Enterobacter cloacae, Klebsiella pneumoniae, Streptococcus pneumoniae, E coli MG1655, and E coli Trimethoprim resistant were streaked on LB miller agar overnight at 37° C. and resuspended in water aliquot. Next, the bacterial concentration was determined using optical density technique. Subsequently, aliquots of different concentrations were prepared for the antibiotic susceptibility testing experiments in CamHB growth media.
as §2, §3, §4

Series [5] has as its system S. pneumonia. The experiment in a line: Conventional broth microdilution (BMD) MIC. In kind it is cell-based, Streptococcus pneumoniae. How it is done:
as §8

Series [6] has as its system S. agalactiae. Description: Conventional broth microdilution (BMD) MIC. Format: cell-based, Streptococcus agalactiae. How it is done: as §8
Series [7] concerns A. baumannii. Description: QolorAST minimum inhibitory concentration (MIC) test. In kind it is cell-based, Acinetobacter baumannii. The settings on record: for MIC: both manually and through SVM. How it is done:
as §9, §2, §3, §4

The test system of series [8] is S. agalactiae. The description is as above. In kind it is cell-based, Streptococcus agalactiae. How it is done: as §9, §2, §3, §4
Series [9] concerns S. pneumonia. Described as above. In kind it is cell-based, Streptococcus pneumoniae. The protocol:
as §9, §2, §3, §4

The subject of series [10] is K. pneumonia. Description: Conventional broth microdilution (BMD) MIC. Format: cell-based, Klebsiella pneumoniae. How it is done: as §8
Series [11] relates to K. pneumonia. The experiment in a line: QolorAST minimum inhibitory concentration (MIC) test. In kind it is cell-based, Klebsiella pneumoniae. How it is done:
as §9, §2, §3, §4

The test system of series [12] is A. baumannii. The experiment in a line: Conventional broth microdilution (BMD) MIC. Format: cell-based, Acinetobacter baumannii. The protocol:
as §8

Series [13] has as its system E. cloacae. The experiment in a line: Conventional broth microdilution (BMD) MIC. In kind it is cell-based, Enterobacter cloacae. How it is done: as §8
Series [14] has as its system E coli mm 294. The experiment in a line: QolorAST MIC test for E coli strains spiked in urine. The note with it: E coli mm 294 spiked in urine. In kind it is cell-based, Escherichia coli. The protocol: To obtain spiked human samples, first human urine was centrifuged at 5000 rcf for 5 minutes to remove large particles. It was subsequently spiked with 5×10^5 CFU ml^−1 and mixed with a solution of Resazurin to a final concentration of 0.02%. No antibiotics were added for the control aliquots, 32 μg/mL Ampicillin was added for resistant aliquots and 16 μg/mL Kanamycin was added for susceptible aliquots. The aliquots were incubated at 37° C. different periods starting from 0 minutes incubation till 60 minutes with a time step of 5 minutes.
According to the Infectious Diseases Society of America (IDSA), 105 CFU ml^−1 and 102 CFU ml^−1 were spiked in-vivo in urine, serum, and nasal swab of donors to simulate urinary tract infection, wound infection, and pneumonia by MRSA, respectively. Human urine was spiked with different concentrations of E. coli (FIG. 32D). As a control the healthy human biofluids were screened as received.

Series [15] concerns E coli. Description: Phenotypic QolorAST rapid AST (resazurin reduction). Format: cell-based, Escherichia coli. The note with it: 10^5 cfu/mL E coli, antibiotic concentrations, 0-60 min. How it is done: as §5, §6, §7
Series [16] deals with serum proteins. The settings on record: human serum; cited from earlier work.
The subject of series [17] is MRSA. Description: QolorAST minimum inhibitory concentration (MIC) test. In kind it is cell-based, Staphylococcus aureus. How it is done:
as §1, §2, §3, §4

The test system of series [18] is MRSA. The experiment in a line: Phenotypic QolorAST rapid AST (resazurin reduction). The settings on record: 10^5 cfu/mL MRSA, antibiotic concentrations, 0-60 min. In kind it is cell-based, Staphylococcus aureus. The protocol: as §5, §6, §7
The subject of series [19] is MRSA. The experiment in a line: Conventional broth microdilution (BMD) MIC. In kind it is cell-based, Staphylococcus aureus. How it is done:
as §8

Values after ≈ are worked out from the molar mass of the structure shown.

Take Gentamicin: in [1], the “MA-MIC/SVM-MIC/MIC Category” value is “S/S/S*”, the MIC outcomes amounted to 0.5 µg/mL, the QolorAST MIC Manual (MA-MIC) is 0.5 µg/mL and the QolorAST MIC SVM (SVM-MIC) was determined as 0.5 µg/mL. Further, in series [1], the “classification by clinical breakpoints” value is recorded as “susceptible”. In series [2], the “QolorAST colour readout over incubation” value is listed as “consistent blue color”. The “Broth Microdilution MIC (MIC)” value in [3] is given as 0.5.
As to Colistin, the “MA-MIC/SVM-MIC/MIC Category” value is listed as “R/R/R” in [4]; “R/R/R” in series [7]; “R/R/R*” in [8]; “R/R/R*” in [9]; “R/R/R” in series [11]. The QolorAST MIC Manual (MA-MIC) in series [4] was 4 µg/mL; in [7], 8 µg/mL; in [8], 128 µg/mL; in series [9], above 128 µg/mL; in series [11] it was 8 µg/mL. Besides, the QolorAST MIC SVM (SVM-MIC) in [4] was 4 µg/mL; in series [7] it was 8 µg/mL; in [8], above 128 µg/mL; in [9], above 128 µg/mL; in series [11], 8 µg/mL. Also, the “Broth Microdilution MIC (MIC)” value in [5] is above 128; in series [6], 128; in series [10] it was 8; in series [12], 8; in series [13], 4. This compound yielded an MIC in [7] of 8 µg/mL. The resistance or susceptibility entry in series [8] was “resistant”.
As to `NC[C@H]1O[C@H](O[C@H]2[C@H](O)[C@@H](O[C@H]3O[C@H](CO)[C@@H](O)[C@H](N)[C@H]3O)[C@H](N)C[C@@H]2N)[C@H](O)[C@@H](O)[C@@H]1O` [Kanamycin], in [14], the MIC worked out at 8 µg/mL (≈ 16.5 µM).
In the case of `CC1(C)S[C@@H]2[C@H](NC(=O)[C@H](N)c3ccccc3)C(=O)N2[C@H]1C(=O)O` [Ampicillin], the “MA-MIC/SVM-MIC/MIC Category” value is on record as “R/R/R” in [4], “R/R/R*” in [7], “R/R/R*” in series [9] and “R/R/R” in series [11]. Also, the QolorAST MIC Manual (MA-MIC) in [4], in series [7], in [9] and in [11] was above 128 µg/mL throughout. The QolorAST MIC SVM (SVM-MIC) in series [4] is above 128 µg/mL; in series [7] it was above 128 µg/mL; in series [9] it was above 128 µg/mL; in series [11], 128 µg/mL. Moreover, the “Broth Microdilution MIC (MIC)” value in series [5], in [10], in series [12] and in series [13] was above 128 each time. In addition, the MIC in series [7] is above 128 µg/mL. The “QolorAST colour readout over incubation” value in [15] is reported as “consistent color change from blue to green”. In series [11], the “relative susceptibility from MIC values” is given as “enhanced susceptibility to ampicillin over colistin”.
With `Cc1onc(-c2ccccc2)c1C(=O)N[C@@H]1C(=O)N2[C@@H]1SC(C)(C)[C@@H]2C(=O)O` [Oxacillin], the “Broth Microdilution MIC (MIC)” value in [6] is given as 0.125. In series [8], the “MA-MIC/SVM-MIC/MIC Category” value is recorded as “S/S/S*”, the QolorAST MIC Manual (MA-MIC) turned out to be 0.125 µg/mL, the QolorAST MIC SVM (SVM-MIC) was found to be 0.125 µg/mL and the resistance or susceptibility result is listed as “susceptible”. In addition, in [16], the “drug bounded to serum proteins” value was 93%. In series [17], the “MA-MIC/SVM-MIC/MIC Category” value is listed as “R/R/R”, the QolorAST MIC Manual (MA-MIC) was determined as 64 µg/mL, the QolorAST MIC SVM (SVM-MIC) is 64 µg/mL and the resistance or susceptibility result was “resistance”. Besides, in series [18], the “QolorAST colour readout over incubation” value was “consistent color change from blue to green”. For the same compound, the “Broth Microdilution MIC (MIC)” value in series [19] is on record as 64.
